Data published in PubChem BioAssay AID624254 (Broad Institute, 2012).
Active and inactive are the calls of the source. How the calls were made is not given here.

Assay: Luciferase light induction in v cholerae bh1651, agonist dose response, confirmatory (AID 624254)
Conditions: V. cholerae BH1651 luxOD47E, luciferase light induction, 6 h; at 50 µM (top of the series)

Structure (SMILES)	activation (light increase)
Cc1ccc(S(=O)(=O)Nc2cc(C(=O)NCCN(C)C)ccc2N2CCCCC2)cc1	inactive
CCN(CC)C(=O)c1sc(NC(=O)Cc2ccc(OC)cc2)c(C#N)c1C	inactive
COC(=O)c1cc(COC(=O)c2ccc(OC)c(S(=O)(=O)N3CCCC3)c2)oc1C	inactive
COc1ccc(-c2ccc(-c3nnc(Cc4ccc(OC)c(OC)c4)o3)cc2)cc1	inactive
COc1ccc(C(=O)COC(=O)CNC(=O)c2ccc(Cl)cc2Cl)c(OC)c1	inactive
COc1cccc(CNC(=O)COC(=O)CN(C)S(=O)(=O)c2ccc(NC(C)=O)cc2)c1	inactive
COc1ccccc1NC(=O)CN1CCN(C(=O)C2CCCO2)CC1 (stereo not drawn)	inactive
COc1cccc(-c2nc(OC(C)C)c3ccccc3n2)c1	inactive
Cc1ccccc1NS(=O)(=O)c1cn(C)cn1	inactive
C=CCNC(=O)CCCOc1ccc(C)cc1	inactive
Cc1cc(C(C)(C)C)oc1C(=O)OCC(=O)NC1CCCCC1	inactive
COc1ccc(C(=O)COC(=O)c2cccc(-n3cnnn3)c2)c(OC)c1	inactive
COC(=O)Cn1nc(-c2ccccc2)c2ccccc21	inactive
CCn1c(SCC(=O)OC2CCCCC2)nnc1-c1ccncc1	inactive
COc1ccccc1NC(=O)CN1CCN(c2ccccc2F)CC1	inactive
C[C@@H]1CN([C@H](C)CO)C(=O)c2cccc(NC(=O)Nc3ccc4c(c3)OCO4)c2O[C@@H]1CN(C)S(=O)(=O)c1ccccc1	inactive
CCOC(=O)C1CCCc2c1[nH]c1c(C(=O)O)cccc21 (stereo not drawn)	inactive
COc1ccc(S(=O)(=O)N2CCOCC2)cc1NC(=O)CSc1nnc(C2CC2)n1C1CC1	inactive
CCCn1nnnc1NCc1ccc(N(C)C)cc1	inactive
COc1ccccc1NC(=O)COC(=O)c1oc2ccccc2c1C	inactive
Cc1onc(-c2ccccc2)c1C(=O)n1cccn1	inactive
CC(=O)c1cc2c(cc1NC(=O)Cc1c(C)noc1C)OCO2	inactive

Structure (SMILES)	activation (light increase)
COC(=O)c1nnn(-c2nonc2N)c1CSc1nc2ccccc2s1	inactive
Cc1ccc(CN2C(=O)CCC2C(=O)NCCN(CC(C)C)CC(C)C)cc1 (stereo not drawn)	inactive
O=S(=O)(Nc1cccnc1)c1ccc(Oc2ccccc2)cc1	inactive
CC1CCN(c2ccccc2NC(=O)c2cc3ccccc3o2)CC1	inactive
CC(C)Oc1ccc(C(=O)Nc2cc(S(=O)(=O)N3CCOCC3)ccc2N2CCOCC2)cc1	inactive
COc1ccc(/C(N)=N/OC(=O)Cc2ccccc2OC)cc1	inactive
COc1ccccc1N1CCN(CCCOc2ccc(F)cc2)CC1	inactive
O=C(c1cc(-c2ccc3c(c2)OCO3)on1)N1CCN(c2ccc(F)cc2)CC1	inactive
COc1cc2c(c(OC)c1OC)C(c1ccc(C)cc1)CC(=O)O2 (stereo not drawn)	inactive
CCc1ccc(OCCNC(=O)c2ccco2)cc1	inactive
O=C(O)c1[nH]c2ccccc2c1NS(=O)(=O)Cc1ccccc1	inactive
COc1ccc(Cl)cc1NC(=O)COC(=O)c1ccc(C)o1	inactive
O=S(=O)(Nc1ccccn1)c1ccccc1	inactive
CCOC(=O)N1CCC(NC(=O)C2CCN(C(=O)N3CC(C)Oc4ccc(C)cc43)CC2)CC1 (stereo not drawn)	inactive
CCOc1ccc2cc(C#N)c(SCC(=O)N3CCC(C)CC3)nc2c1	inactive
FC(F)(F)c1nnc2sc(-c3cccs3)nn12	inactive
COc1ccc(NC(=O)CN(C)C(=O)c2cccc(S(=O)(=O)N3CCN(C)CC3)c2)cc1	inactive
CN(CC(=O)Nc1ccc(OC(F)(F)F)cc1)C(=O)C1CCC1	inactive
COc1cccc(NC(=O)C2CC(=O)OC23CCOC(C)(C)C3)c1 (stereo not drawn)	inactive
CCOc1ccc(C(=O)OCC(=O)N2CCCC2)cc1	inactive
CCc1ccc(-c2ccc(C(=O)O)n2C)cc1	inactive
